Where “and” joins values, the source holds several entries; their conditions need not be identical. Equal entries are not always repeated.
What was measured:
Rattus norvegicus [1] = assay: Antiinflammatory activity in Wistar rat model of carrageenan-induced paw edema assessed as reduction in thickness of paw edema at 10 mg/kg, ip pretreated for 1 hr followed by carrageenan challenge and measured after 1 hr (reference value: 2.41 +/-0.05 mm); assay type: functional; settings: time 1 hr after carrageenan
Rattus norvegicus [2] = assay: Anti-inflammatory activity in Wistar rat assessed as inhibition of carrageenan-induced paw edema at 10 mg/kg, ip pretreated for 1 hr followed by carrageenan challenge and measured after 1 hr relative to control (reference value: 0.00 +/-0.02 %); assay type: functional; settings: time 2 hrs
Rattus norvegicus [3] = assay: Antiinflammatory activity in Wistar rat model of carrageenan-induced paw edema assessed as reduction in thickness of paw edema at 10 mg/kg, ip pretreated for 1 hr followed by carrageenan challenge and measured after 2 hrs (reference value: 2.06 +/-0.09 mm); assay type: functional; settings: time 3 hrs
Rattus norvegicus [4] = assay: Anti-inflammatory activity in Wistar rat assessed as inhibition of carrageenan-induced paw edema at 10 mg/kg, ip pretreated for 1 hr followed by carrageenan challenge and measured after 2 hr relative to control (reference value: 0.00 +/-0.03 %); assay type: functional; settings: time 3 hrs
Rattus norvegicus [5] = assay: Antiinflammatory activity in Wistar rat model of carrageenan-induced paw edema assessed as reduction in thickness of paw edema at 10 mg/kg, ip pretreated for 1 hr followed by carrageenan challenge and measured after 3 hrs (reference value: 1.79 +/-0.07 mm); assay type: functional; settings: time 4 hrs
Rattus norvegicus [6] = assay: Anti-inflammatory activity in Wistar rat assessed as inhibition of carrageenan-induced paw edema at 10 mg/kg, ip pretreated for 1 hr followed by carrageenan challenge and measured after 3 hr relative to control (reference value: 0.00 +/-0.1 %); assay type: functional; settings: time 4 hrs
Rattus norvegicus [7] = assay: Antiinflammatory activity in Wistar rat model of carrageenan-induced paw edema assessed as reduction in thickness of paw edema at 10 mg/kg, ip pretreated for 1 hr followed by carrageenan challenge and measured after 4 hrs (reference value: 1.40 +/-0.10 mm); assay type: functional; settings: time 5 hrs
Rattus norvegicus [8] = assay: Anti-inflammatory activity in Wistar rat assessed as inhibition of carrageenan-induced paw edema at 10 mg/kg, ip pretreated for 1 hr followed by carrageenan challenge and measured after 4 hr relative to control (reference value: 0.00 +/-0.4 %); assay type: functional; settings: time 5 hrs
Rattus norvegicus [9] = assay: Antiinflammatory activity in Wistar rat model of carrageenan-induced paw edema assessed as reduction in thickness of paw edema at 10 mg/kg, ip pretreated for 1 hr followed by carrageenan challenge and measured after 24 hrs (reference value: 0.83 +/-0.08 mm); assay type: functional; settings: time 25 hrs
Rattus norvegicus [10] = assay: Anti-inflammatory activity in Wistar rat assessed as inhibition of carrageenan-induced paw edema at 10 mg/kg, ip pretreated for 1 hr followed by carrageenan challenge and measured after 24 hr relative to control (reference value: 0.00 +/-0.3 %); assay type: functional; settings: time 25 hrs
Rattus norvegicus [11] = assay: Anti-inflammatory activity in Wistar rat assessed as inhibition of carrageenan-induced paw edema at 10 mg/kg, ip pretreated for 1 hr followed by carrageenan challenge and measured after 4 hr relative to indomethacin; assay type: functional; settings: time 5 hrs
[12] = Ulcerogenic activity in fasted albino mouse assessed as incidence of gastric ulceration at 10 mg/kg, po for 3 days (reference value: 0 %); assay type: toxicity, organism-based; settings: in vivo, 72 h, time 3 day
[13] = Ulcerogenic activity in fasted albino mouse assessed as average number of ulcers in gastric mucosa at 10 mg/kg, po for 3 days (reference value: 0); assay type: toxicity, organism-based; settings: in vivo, 72 h, time 3 day
[14] = Ulcerogenic activity in fasted albino mouse assessed as average severity of ulcers in gastric mucosa at 10 mg/kg, po for 3 days (reference value: 0); assay type: toxicity, organism-based; settings: in vivo, 72 h, time 3 day
[15] = Ulcerogenic activity in fasted albino mouse assessed as ulcer index in gastric mucosa at 10 mg/kg, po for 3 days (reference value: 0); assay type: toxicity, organism-based; settings: in vivo, 72 h, time 3 day
Splenocyte [16] = assay: Immunomodulatory activity in Swiss albino mouse splenocytes assessed as cell viability at 10 uM by measuring stimulation index incubated for 72 hrs in presence of mitogenic stimulus phytohaemagglutinin by MTT assay (reference value: 1.00 +/- 0.24); assay type: functional
Splenocyte [17] = assay: Immunomodulatory activity in Swiss albino mouse splenocytes assessed as cell viability at 10 uM by measuring inhibition of stimulation index incubated for 72 hrs in presence of mitogenic stimulus phytohaemagglutinin by MTT assay relative to indomethacin; assay type: functional; settings: read-out: Activity
Peritoneal macrophage [18] = assay: Antiinflammatory activity in […] mouse Peritoneal macrophages assessed as reduction in LPS-induced NO production by measuring reduction in stimulation index at 10 uM preincubated for 1 hr followed by LPS stimulation measured after 24 hrs by Griess method (reference value: 27.31 +/- 2.56 uM); assay type: functional; settings: time 25 hrs
Peritoneal macrophage [19] = assay: Antiinflammatory activity in […] mouse Peritoneal macrophages assessed as inhibition of LPS-induced NO production at 10 uM preincubated for 1 hr followed by LPS stimulation measured after 24 hrs by Griess method relative to control (reference value: 0.0 %); assay type: functional; design: scale not given: the % may be the effect or the level left; settings: time 25 hrs
Mus musculus [20] = assay: Analgesic activity in albino mouse assessed reduction in acetic acid-induced abdominal writhing by measuring writing reflex at 10 mg/kg, ip pretreated for 1 hr followed by acetic acid challenge and measured starting 5 mins post acetic acid challenge for 10 mins (reference value: 42.4 +/- 1.02); assay type: functional; settings: time 75 min, 1.25 h
Mus musculus [21] = assay: Analgesic activity in albino mouse assessed protection against acetic acid-induced abdominal writhing at 10 mg/kg, ip pretreated for 1 hr followed by acetic acid challenge and measured starting 5 mins post acetic acid challenge for 10 mins relative to control (reference value: 0 %); assay type: functional; settings: time 75 min, 1.25 h
Mus musculus [22] = assay: Analgesic activity in albino mouse assessed protection against acetic acid-induced abdominal writhing at 10 mg/kg, ip pretreated for 1 hr followed by acetic acid challenge and measured starting 5 mins post acetic acid challenge for 10 mins relative to indomethacin; assay type: functional; settings: time 75 min, 1.25 h
Mus musculus [23] = assay: Analgesic activity in albino mouse assessed as forepaw licking/jumping latency time at 10 mg/kg, ip measured after 30 mins by hot plate test (reference value: 5.02 +/- 0.09 sec); assay type: functional; settings: 0.5 h
Mus musculus [24] = assay: Analgesic activity in albino mouse assessed as protection at 10 mg/kg, ip measured after 30 mins by hot plate test (reference value: 0 %); assay type: functional; settings: 0.5 h
Mus musculus [25] = assay: Analgesic activity in albino mouse assessed as forepaw licking/jumping latency time at 10 mg/kg, ip measured after 60 mins by hot plate test (reference value: 3.42 +/- 0.03 sec); assay type: functional; settings: 1 h
Mus musculus [26] = assay: Analgesic activity in albino mouse assessed as protection at 10 mg/kg, ip measured after 60 mins by hot plate test (reference value: 0 %); assay type: functional; settings: 1 h
Mus musculus [27] = assay: Analgesic activity in albino mouse assessed as forepaw licking/jumping latency time at 10 mg/kg, ip measured after 90 mins by hot plate test (reference value: 2.72 +/- 0.01 sec); assay type: functional; settings: 1.5 h
Mus musculus [28] = assay: Analgesic activity in albino mouse assessed as protection at 10 mg/kg, ip measured after 90 mins by hot plate test (reference value: 0 %); assay type: functional; settings: 1.5 h
Mus musculus [29] = assay: Analgesic activity in albino mouse assessed as forepaw licking/jumping latency time at 10 mg/kg, ip measured after 120 mins by hot plate test (reference value: 2.62 +/- 0.06 sec); assay type: functional; settings: 2 h
Mus musculus [30] = assay: Analgesic activity in albino mouse assessed as protection at 10 mg/kg, ip measured after 120 mins by hot plate test (reference value: 0 %); assay type: functional; settings: 2 h
Mus musculus [31] = assay: Analgesic activity in albino mouse assessed as protection at 10 mg/kg, ip measured after 120 mins by hot plate test relative to indomethacin; assay type: functional; settings: 2 h
Staphylococcus aureus = assay: Antibacterial activity against Staphylococcus aureus ATCC 25923 incubated for 18 hrs by agar dilution method; assay type: functional
Streptococcus pyogenes = assay: Antibacterial activity against Streptococcus pyogenes ATCC 19615 incubated for 18 hrs by agar dilution method; assay type: functional
Salmonella typhimurium = assay: Antibacterial activity against Salmonella typhimurium ATCC 19430 incubated for 18 hrs by agar dilution assay; assay type: functional, Salmonella enterica subsp. enterica serovar Typhimurium; settings: Salmonella enterica
Pseudomonas aeruginosa = assay: Antibacterial activity against Pseudomonas aeruginosa ATCC 27853 incubated for 18 hrs by agar dilution assay; assay type: functional
Candida albicans = assay: Antifungal activity against Candida albicans incubated for 18 to 24 hrs by CLSI method; assay type: functional; settings: time 18-24 hrs
A549 = assay: Antiproliferative activity against human A549 cells assessed as inhibition of cell growth after 72 hrs by MTT assay; assay type: functional, cell-based; settings: A549, 72 h
MCF7 = assay: Antiproliferative activity against human MCF7 cells assessed as inhibition of cell growth after 72 hrs by MTT assay; assay type: functional, cell-based; settings: MCF7, 72 h
PC-3 = assay: Antiproliferative activity against human PC3 cells assessed as inhibition of cell growth after 72 hrs by MTT assay; assay type: functional, cell-based; settings: PC-3, 72 h
[32] = Toxicity in albino mouse assessed as induction of toxic symptoms at 50 to 100 mg/kg, ip measured after 24 hrs; assay type: organism-based; settings: in vivo, dose 50-100 mg/kg

COc1cc(/C=C/C(=O)/C=C(O)/C=C/c2ccc(OC(=O)CCN)c(OC)c2)ccc1OC(=O)CCN.Cl.Cl
Activity (Rattus norvegicus [1]): 0.74 mm | inhibition in vivo at 10 mg/kg (Rattus norvegicus [2]): 69% | Activity (Rattus norvegicus [3]): 0.6 mm | inhibition in vivo at 10 mg/kg (Rattus norvegicus [4]): 71% | Activity (Rattus norvegicus [5]): 0.42 mm | inhibition in vivo at 10 mg/kg (Rattus norvegicus [6]): 77% | Activity (Rattus norvegicus [7]): 0.16 mm | inhibition in vivo at 10 mg/kg (Rattus norvegicus [8]): 89% | Activity (Rattus norvegicus [9]): 0.23 mm | inhibition in vivo at 10 mg/kg (Rattus norvegicus [10]): 72% | inhibition in vivo at 10 mg/kg (Rattus norvegicus [11]): 102% | Activity [12]: 0% | Activity [13]: 0 | Activity [14]: 0 | UI [15]: 0 | Activity_index (Splenocyte [16]): 1.39 | viability at 10 µM (Splenocyte [17]): 87.4% | Activity (Peritoneal macrophage [18]): 15.93 µM | Activity (Peritoneal macrophage [19]): 41.68% | Activity (Mus musculus [20]): 25.6 | Activity (Mus musculus [21]): 39.6% | Activity (Mus musculus [22]): 64.3% | Time (Mus musculus [23]): 5.46 s | Activity (Mus musculus [24]): 8.8% | Time (Mus musculus [25]): 5.2 s | Activity (Mus musculus [26]): 52% | Time (Mus musculus [27]): 4.16 s | Activity (Mus musculus [28]): 52.9% | Time (Mus musculus [29]): 3.56 s | Activity (Mus musculus [30]): 35.9% | Activity (Mus musculus [31]): 85.5% | MIC (Staphylococcus aureus): 1 µg/mL and 1.71 µM | MIC (Streptococcus pyogenes): 1 µg/mL and 1.71 µM | MIC (Salmonella typhimurium): 1 µg/mL and 1.71 µM | MIC (Pseudomonas aeruginosa): 1 µg/mL and 1.71 µM | MIC (Candida albicans): 0.5 µg/mL and 0.857 µM | IC50 (A549): 32.4 µM | IC50 (MCF7): 9.36 µM | IC50 (PC-3): 30.2 µM | Activity [32]: Non-Toxic

From ChEMBL document CHEMBL4765295, “Synthesis, pharmacological profile and 2D-QSAR studies of curcumin-amino acid conjugates as potential drug candidates” (Eur J Med Chem, 2020)
